We go through eleven molecules from US20130203830A1, “Compounds for Prevention of Cell Injury” (SULFATEQ B.V., priority 2010, published 2013).

Experiment [1] concerns SMAC cells. As to the kind of experiment: H2S production in SMAC cells at 3° C. (methylene blue, supernatant). Format: cell-based, rat. As to conditions: SMAC cells incubated at 3° C. for 24 hour. The protocol:
(§1) Methylene blue method for H2S detection was applied to quantitatively measure the H2S production. Cells were washed with PBS, scraped and centrifuged for 60 sec at 1000 rpm. After removal of the supernatant, zinc acetate 1% in water (200 μl) was added to the cell sediments and the cells were disrupted by small glass beads and vortexed for 20 seconds. Diamine-ferric solution was prepared by mixing 100 μl of a 400 mg N,N-dimethyl-p-phenylenediamine dihydrochloride dissolved in 10 ml 6M HCl and 100 μl of 600 mg ferric chloride in 10 ml 6M HCl. Two hundred μl of this mixture was added to the cell suspension and after an incubation time of 30 min at 37° C. and centrifugation, the amount of methylene blue formed in the supernatant was measured at a wavelength of 670 nm. To measure H2S content of supernatant, the same procedure was repeated for the cell free medium of cells incubated at both 37° C. and 3° C. Blanks were made following the same procedure without cells or using fresh medium. The concentration of H2S was calculated by extrapolation using a standard curve obtained from different concentrations of Methylene blue and spectrophotometric measurement at a wavelength of 670 nm. The amount of H2S present was calculated on the basis that every mole of methylene blue formed in this reaction contains 32 g (1 mole) of captured sulfur.
Methylene blue method for H2S detection was applied to quantitatively examine the H2S present in cell supernatant at 0 and 24 hr after hypothermic treatment at 3° C.

Experiment [2] deals with DDT-1 cells. Briefly: Survival of DDT-1 cells after hypothermia (MTS assay). Format: cell-based, hamster. The note with it: 3° C.; for resistance / survival of DDT-1 cells in hypothermia: 24 h, ketanserine 400 ng/ml and 10 μg/ml, fluoxetine 0.005 μM 15 min before, CBS siRNA. The protocol: Cell lines used included NRK (normal rat kidney cells), DDT-1 (hamster ductus deferens muscle cells) and A7R5 (rat vascular smooth muscle cells) cultured in DMEM (Gibco, 41966, UK) and SMAC (rat smooth muscle aortic cells) and THMC (transformed human mesangial cell) cultured in DMEM/F12 (Gibco, E12-719F). All media were supplied with 10% (vol/vol) fetal calf serum and 1% penicillin-streptomycin and cultured at 37° C. in 5% CO2 in 25 cm^2 or 75 cm^2 flasks. For hypothermia experiments, cells were plated in 6 or 96 wells plates and grown to confluence. […] Cell survival was measured by counting of trypan blue stained cells or MTS assay, which measures the number of viable cells. For the latter, 20 μl of MTS solution was added to each well and cells were subsequently placed in the incubator at 37° C. in 5% CO2 for 3 hr before assessing the cell survival by measuring absorption using a microplate reader at 490 nm.
(§2) MTS assay was performed to investigate cell survival after blocking serotonin transporter and hypothermic treatment.
Parachlorophenyl-alanine (PCPA; Sigma, C6506-5G) was dissolved in warmed, acidified (pH 6.8) DDT-1 medium and vortexed for 5 min to a final concentration of 1.25 μM. Other concentrations were made from this stock solution. Control experiments were performed with a similar solution without PCPA. Anhydrous creatine (Sigma C4255-25G, USA) was dissolved in cell medium and added to wells to exclude the effect of this component. The treatment continued for 4 days until the concentration of indoleamines inside the cells reached half the baseline value. The cells were placed at 3° C., and MTS assay was performed after 24 h.
(In general: Tetrazolium assays rely on reduction of a dye to a coloured formazan, in cell work by metabolically active cells.)

The subject of experiment [3] is SMAC cells. Briefly: Survival of SMAC cells after hypothermia (MTS assay / cell counting). Type of experiment: cell-based, rat. The note with it: for effect on the protective effect of serotonin on hypothermic SMAC cells: 24 h, 3° C., ketanserine 400 ng/ml and 10 μg/ml, fluoxetine 0.005 μM, CBS siRNA. The protocol:
Cell lines used included NRK (normal rat kidney cells), DDT-1 (hamster ductus deferens muscle cells) and A7R5 (rat vascular smooth muscle cells) cultured in DMEM (Gibco, 41966, UK) and SMAC (rat smooth muscle aortic cells) and THMC (transformed human mesangial cell) cultured in DMEM/F12 (Gibco, E12-719F). All media were supplied with 10% (vol/vol) fetal calf serum and 1% penicillin-streptomycin and cultured at 37° C. in 5% CO2 in 25 cm^2 or 75 cm^2 flasks. For hypothermia experiments, cells were plated in 6 or 96 wells plates and grown to confluence. Thereupon, cells were placed at 3° C. for up to 24 hours. Cell survival was measured by counting of trypan blue stained cells or MTS assay, which measures the number of viable cells. For the latter, 20 μl of MTS solution was added to each well and cells were subsequently placed in the incubator at 37° C. in 5% CO2 for 3 hr before assessing the cell survival by measuring absorption using a microplate reader at 490 nm.
as §2

In experiment [4] the test system is DDT-1 cells. Briefly: H2S content of DDT-1 cells (methylene blue method). Format: cell-based, hamster. As to conditions: hypothermia, at 24 h. The protocol:
as §1

Experiment [5] in a line: Serum H2S concentration in rats (methylene blue method). Type of experiment: in vivo, rat. The note with it: throughout cooling and rewarming procedure, compared to control.
The test system of experiment [6] is male Wistar rats. As to the kind of experiment: In vivo protection from hypothermic liver damage (FABP1 expression). Also on record: species or system rat. As to conditions: rats cooled to 15° C. for 3 hr and rewarmed to 37° C.; compared to non-cooled control. The protocol: (§3) Three groups of male Wistar rats (350-400 gr) were investigated: cooled rats either anesthetized with propofol or ketamine (n=6 each); a non-cooled control group briefly anesthetized with isofluran was sacrificed at 37° C. (n=3). After anesthesia with isofluran, the trachea was intubated with a […] cuffed tube and mechanical ventilation was started with air. A 5F central venous catheter was introduced in the internal jugular vein for blood sampling, hydration and administration of the anesthetic. A catheter was inserted in the common carotid artery for continuous monitoring of systemic arterial pressure and for blood gas analysis. Cardiovascular and oxygen saturation monitoring was performed during the entire procedure. After preparation, isoflurane was stopped and anesthesia was maintained with either propofol-Lipro (20 mg/m; Braun, Melsungen, Duitsland) at 2 ml/h or ketamine 0.6 ml/hr for 1 hr. Cooling of the animals was accomplished by an external cooling blanket and ice packs. […] Rats were kept at this temperature for 3 hr, followed by rewarming to 37° C. in about 1 hr using a heating blanket and warm air. The rats were then kept at 37° C. for another hr, followed by sacrification by exsanguination. Blood sampling was performed at the end of the preparation period and every hr after the body temperature reached 15° C. […]

Experiment [7] relates to CBS. Briefly: CBS expression in liver of cooled and rewarmed rats. Format: in vivo, rat. As to conditions: rats cooled to 15° C. for 3 hr and rewarmed; compared to controls. On the procedure: as §3, with “exsanguination.” for “exsanguination. Blood sampling was performed at the end of the preparation period and every hr after the body temperature reached 15° C.”
CBS (cystathionine betasynthase) expression was also measured as the one of the main enzymes producing H2S in the liver.

Experiment [8] addresses T1, CBS (Homo sapiens, UniProt P35520).
T1 sequence (P35520 1-551): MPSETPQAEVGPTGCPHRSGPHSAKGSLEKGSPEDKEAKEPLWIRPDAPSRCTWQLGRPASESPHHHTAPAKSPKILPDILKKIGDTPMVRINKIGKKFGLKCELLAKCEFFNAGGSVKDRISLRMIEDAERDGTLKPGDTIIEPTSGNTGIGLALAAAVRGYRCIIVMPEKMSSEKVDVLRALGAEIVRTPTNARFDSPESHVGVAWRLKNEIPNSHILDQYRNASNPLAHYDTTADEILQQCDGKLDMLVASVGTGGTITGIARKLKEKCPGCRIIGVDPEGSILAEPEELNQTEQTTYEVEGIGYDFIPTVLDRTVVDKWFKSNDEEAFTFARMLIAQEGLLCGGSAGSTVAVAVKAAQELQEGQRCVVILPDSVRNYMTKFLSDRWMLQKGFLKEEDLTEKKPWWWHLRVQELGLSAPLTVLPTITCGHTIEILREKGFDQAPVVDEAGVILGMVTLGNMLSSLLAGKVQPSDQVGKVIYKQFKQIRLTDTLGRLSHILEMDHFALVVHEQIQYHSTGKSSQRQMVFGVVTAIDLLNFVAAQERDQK
The note with it: binding to CBS; cited from earlier work.

Experiment [9] concerns CBS. Briefly: CBS expression in normothermic and hypothermic rat tissue (immunostaining). The note with it: liver, pancreas, lung, kidney, heart; 3° C., 24 hr. The text has this: Two rats (rattus norvegicus) were sacrificed and blood was taken out. The tissues were flushed by either PBS as control or PBS plus dopamine. Liver, pancreas, lung, kidney and heart were harvested. […] Tissues were fixed after being taken out of cold room. The tissues were later embedded in Paraffin, cut into 5 μm sections and stained with CBS antibody.

Experiment [10] has as its system DDT-1 cells. As to the kind of experiment: Indoleamine content of DDT-1 cells (Ehrlich reagent). Type of experiment: cell-based, hamster. The note with it: 4 days of pretreatment, n=8. The protocol:
Ehrlich's reagent was used to quantify the cellular amount of indoles. Qualitative analysis of cellular indoles in cell culture medium at 37° C. and 3° C. was conducted after extraction according to Happold and Hoyle. Five ml of medium was shaken vigorously with 2 ml of xylene. Next, 1 ml of Ehrlich's reagent is applied to the surface of the mixture. Redistribution of xylene through the Ehrlich's reagent induces formation of the rosindole body, a red ring appearing at the lower surface of the xylene layer indicating the presence of indoleamides. The change in indole concentration in DDT-1 cells was measured after washing the cells with PBS, centrifugation (1000 rpm, 5 min) and removal of supernatant. Ehrlich reagent (200 μl) was added to each tube. After 3 min of vortexing, tubes were left for 3 h at 60° C. After centrifugation (1000 rpm, 5 min), color intensity was spectrophotometrically measured at 625 nm. Calibration experiments were carried out using 5-HT (0.025-0.5 mM), which rendered a linear regression with a correlation coefficient (R2) of 0.9996 (data not shown). To verify the accuracy of the Ehrlich reagent experiments automated mass spectrometric analysis was performed on all the samples according to the method set up by Ido P. Kema. […]

Entries after “also recorded” stand apart in the source; their conditions may differ.

Take `NCCc1c[nH]cn1` [histamine, 4-(2′-aminoethyl)-imidazol]: the H2S production result in [1] is given as “increased H2S production”.

Turning to `CNCCC(Oc1ccc(C(F)(F)F)cc1)c1ccccc1` (stereo not drawn) [Fluoxetine], in experiment [2], the “resistance / survival of DDT-1 cells in hypothermia” value is given as “death of more than half of these cells”. In experiment [3], the “effect on the protective effect of serotonin on hypothermic SMAC cells” value is reported as “complete annihilation of the protective effect of serotonin”. Also, the “H2S concentration inside DDT-1 cells” value in [4] was “lower concentration of H2S”.

Consider `CNC1(c2ccccc2Cl)CCCCC1=O` (stereo not drawn) [ketamine, reference compound], for which, in experiment [5], the “Serum H2S concentration” value is listed as “decreased”. For the same molecule, in experiment [6], the “liver damage, FABP1 expression in liver” value is “decreased expression of FABP1”. The “CBS expression in liver” value in experiment [7] is recorded as “significantly lowered”.

Turning to `Cc1ncc(COP(=O)(O)O)c(C=O)c1O` [PLP, Pyridoxal 5-Phosphate], in [8], the “free energy of binding reported for PLP” value was -4.81 kcal/mol.

Take `NCCc1ccc(O)c(O)c1` [dopamine, 2-(3,4-dihydroxyfenyl)ethylamine]: the “CBS expression in hypothermic rat tissue” value in experiment [9] was “increased expression; also recorded: upregulation of CBS”. Moreover, in experiment [1], the H2S production result is “increased H2S production”.

As to `N[C@@H](Cc1ccc(Cl)cc1)C(=O)O` (racemic) [PCPA, parachlorophenylalanine], the “DDT-1 survival following hypothermia after PCPA pretreatment” value in [2] (48 hr) is “concentration-dependently decreased; also recorded: blocked”. Besides, the “decrease in indoleamine content of the cells” value in experiment [10] worked out at 50±10%.

Consider `COc1ccc2[nH]cc(CCNC(C)=O)c2c1` [melatonin, N-[2-(5-methoxy-1H-indol-3-yl)ethyl]acetamide], for which the H2S production result in experiment [1] is “increased H2S production”.

With `O=C(c1ccc(F)cc1)C1CCN(CCn2c(=O)[nH]c3ccccc3c2=O)CC1` [Ketanserine], in experiment [2], the “resistance / survival of DDT-1 cells in hypothermia” value is “did not affect the resistance”. Further, in experiment [3], the “effect on the protective effect of serotonin on hypothermic SMAC cells” value is “nor did it affect the protective effect of serotonin”.

As to `CC(C)c1cccc(C(C)C)c1O` [propofol, 2,6-diisopropylfenol], the “Serum H2S concentration” value in experiment [5] is recorded as “increased”. Besides, the “liver damage, FABP1 expression in liver” value in experiment [6] is “protects liver tissue against in vivo hypothermia”. The H2S production entry in experiment [1] is reported as “increased H2S production”. Moreover, the “CBS expression in liver” value in experiment [7] is listed as “induces expression of cystathionine beta synthase; also recorded: increased the expression of CBS”.

Consider `CN(CC(=O)O)C(=N)N.O=S(=O)(O)O` [Creatine sulfate], for which the “protection against hypothermic cell death / reduction in number of cells” value in experiment [3] (SMAC cells, 24 h at 3° C., substance added 15 min before hypothermia) is “did not show any protective effects”.

For the molecule `NCC(CC(=O)O)c1ccc(Cl)cc1` (racemic) [baclofen, (RS)-4-amino-3-(4-chlorophenyl)butanoic acid], the H2S production entry in [1] is “increased H2S production”.
